Like-named read-outs stand apart in the source and are kept apart here.

For data set [1] the following is noted: adult humans, cited from earlier work. The procedure:
An estimation of bioavailability was performed in adult mice. Fifty ng/mL of OT was detected after oral delivery of 10 μg of OT. Young adults weigh approximately 30 g and have 2.3 mL blood, so approximately 1% of oral OT can be absorbed. We have previously identified OT in the mammary tissues of mouse dams and in the milk curd inside the oesophagi of pups[13]. To determine the OT concentrations in milk, we needed to collect milk from the mothers. One common method is to collect milk after stimulating secretion with external OT. Because such milk contains external OT, we were unable to calculat ...

The nature of data set [2]: LC-MS/MS of [Ile13C,15N]OT in plasma after oral administration to pups. Format: in vivo, mice. The procedure:
Plasma samples were collected from the heart of anesthetized wild-type PND3 pups at 10 min after oral administration of [Ile ^13C, ^15N]OT (100 µM × 10 μL). The samples were fractionated with 1 N salt, and subjected to LC-MS/MS after sample preparation by the deproteination procedure. Figure 7 illustrates two representative traces of multiple reaction monitoring (MRM) chromatograms ([M + H^+] (m/z 1014.6) → b6 ion (m/z 730.6) for the administered [Ile ^13C, ^15N]OT; [M + H^+] (m/z 1021.2) → b6 ion (m/z 723.2) for the internal STD [Pro&Leu^13C, ^15N]OT)[47]. The left MRM chromatogram indicates the presence of full-length stably labelled [Ile ^13C, ^15N]OT in the blood owing to intestinal absorption after oral administration in suckling (PND3) pups (n = 4). The right MRM chromatogram of Fig. 7 corresponds to the internal STD [Pro&Leu^13C, ^15N]OT spiked into the plasma.
Standard (STD) samples of [Ile^13C, ^15N]OT (100 ng/mL) and [Pro&Leu^13C, ^15N]OT (100 ng/mL) were prepared by dilution of stock solutions with 0.1% TFA as necessary. […]
An AB Sciex 4000 QTRAP (CA, USA) was used. The prepared 25 μL sample was injected and separated by a ZORBAX 300SB-C8 column (2.1 × 150 mm, 5 μm; CA, USA) and then detected using the multiple reaction monitoring (MRM) mode of the MS/MS system. […]

Data set [3] can be described thus: Plasma AVP after oral delivery of AVP in pups (EIA). Format: in vivo, mice. Particulars: for AVP recovery: rough estimate. On the procedure: To study the specificity of RAGE-dependent transport of OT, we investigated the intestinal absorption of another nonapeptide, arginine vasopressin (AVP[46]) by oral delivery and in the isolated intestines. Transport during the suckling period of development (PND3 and PND5) was confirmed by comparing plasma AVP levels at 10 min after oral delivery of 10 μL of synthetic AVP solution (100 μM; 1 μg/pup) or the same volume of PBS to pups after fasting for 30 min. Plasma AVP concentrations were markedly higher at both PND3 and PND5 in pups administered AVP than in those administered oral saline (Fig. 6a). Two-way ANOVA was used to analyse the interaction between Treatment (PBS/AVP) × Age, F 1,18 = 3.14, P = 0.0933; the Treatment (PBS/AVP) effect, F 1,18 = 5.21, P < 0.05; and the Age effect, F 1,18 = 91.26, P < 0.0001. Bonferroni’s post hoc tests were used to determine differences in AVP levels between PND3 and PND5, *P < 0.05. It is worth noting that the pup size denominator problem was also present in the above experiment. However, if we roughly estimate AVP recovery, it is approximately 4% at PND3 (22 ng was recovered from the effective dose of 555 ng (1 μg/1.8 g pup)) and also 4% at PND5 (16 ng was recovered from the effective dose of 400 ng (1 μg/2.5 g pup)).
Approximately 30 μL of blood was collected from the facial vein of neonates after quick cold anesthesia on ice (Fig. 1a; ref. [67], [68]). The similar blood volume was obtained from the heart after opening of the chest of pups (Figs 1b–d, 3a,b, 6a and 7), from the carotid artery in the pup neck (Fig. 2a) and the tail vein of adults each time (Fig. 6) under ketamine anaesthesia ([…] intraperitoneally).
OT or AVP immunoreactivity levels were quantified by using OT and AVP enzyme immunoassay (EIA) kits (Enzo Life Sciences, NY, USA), respectively. We performed assays in tissue preparations without pre-treatment[66], [70] to compare different tissue samples, though the fractioned sample was recommended, [72]. Blood samples collected as mentioned above were stored at −80 C. The blood samples were thawed and five μL of them were diluted 1:20 in assay buffer on ice and assayed.

On to `CC[C@H](C)[C@@H]1NC(=O)[C@H](Cc2ccc(O)cc2)NC(=O)[C@@H](N)CSSC[C@@H](C(=O)N2CCC[C@H]2C(=O)N[C@@H](CC(C)C)C(=O)NCC(N)=O)NC(=O)[C@H](CC(N)=O)NC(=O)[C@H](CCC(N)=O)NC1=O`, for which the OT detected in plasma after oral delivery was found to be 50 ng/mL.
For 1-deamino-8-arginine vasopressin, the Bioavailability in data set [1] (intranasal) is 3.4%; in data set [1] (intrarectal) it was 0%; in data set [1] (oral), 0.1%; in data set [1] (sublingual), 0%.
`CC[C@H](C)[C@@H]1NC(=O)[C@H](Cc2ccc(O)cc2)NC(=O)[C@@H](N)CSSC[C@@H](C(=O)N2CCC[C@H]2C(=O)N[C@@H](CC(C)C)C(=O)NCC(N)=O)NC(=O)[C@H](CC(N)=O)NC(=O)[C@H](CCC(N)=O)NC1=O` [[Ile ^13C, ^15N]OT, isoleucine [Ile ^13C, ^15N] oxytocin]: in data set [2] (mouse, in vivo, 1000 ng, wild-type PND3 pups 10 min after oral 100 µM × 10 μL, LC-MS/MS, corrected for dilution x10, n = 4, read-out: Estimated mean concentration in the blood), the level at 10 min is 346 ± 96 ng/mL. The “Concentration calculated from ratio of peak areas (10-fold diluted sample)” value in data set [2] (wild-type PND3 pup plasma 10 min after oral 100 µM × 10 μL, LC-MS/MS MRM, sample of Fig. 7, before correction for dilution) is 27.9 ng/mL.
As to arginine vasopressin [AVP], the AVP recovered in data set [3] (wild-type pups PND3, 10 min after oral AVP 1 μg/pup, effective dose 555 ng) amounted to 22 ng; in data set [3] (wild-type pups PND5, 10 min after oral AVP 1 μg/pup, effective dose 400 ng), 16 ng. Besides, the AVP recovery result in data set [3] (wild-type pups PND3, 10 min after oral AVP 1 μg/pup, effective dose 555 ng (1 μg/1.8 g pup)) is recorded as “approximately 4%”; in data set [3] (wild-type pups PND5, 10 min after oral AVP 1 μg/pup, effective dose 400 ng (1 μg/2.5 g pup)), “approximately 4%”.
